Consider six compounds from patent publication US9636317B2, “Compositions and methods of use of phorbol esters” (priority 2007, dated 2017).

One data set has as its system primary AML. To be noted: pharmacological interruption of ERK signaling; cited from earlier work.
A further data set has as its system HIV. To be noted: cited from earlier work.
For another data set, the system named is primary AML cells. Kind of data set: Primary AML cultures ex vivo: cell viability, apoptosis assays and Western analysis of ERK. The format is cell-based, human. To be noted: primary AML samples. From the text:
In addition to protein kinase C and ERK activation, TPA is a known inducer of NF-κB, a pro-survival transcription factor often constitutively active in AML blasts and leukemic stem cells.

The conditions of data set [1]: most polar organic solvents and water; cited from earlier work.

As to `O=C(NOCC1CC1)c1ccc(F)c(F)c1Nc1ccc(I)cc1Cl` [PD 184352], the “primary AML survival” value with primary AML is “decreased primary AML survival”.

Turning to `CC(=O)O[C@@]12C[C@@H](C)[C@@]3(O)[C@@H](C=C(CO)C[C@]4(O)C(=O)C(C)=C[C@@H]34)[C@@H]1C2(C)C` [Prostratin, 12-deoxyphorbol 13-acetate], in the data set on HIV, the “HIV induced cell killing and viral replication” value is “some effectiveness for inhibiting HIV induced cell killing and viral replication”; the “effect on chronically-infected cell lines” value is given as “little or no effect on chronically-infected cell lines”; the “viral expression in latently-infected cell lines” value was “activated viral expression in latently-infected cell lines”.

For `N#CC(=C(/N)Sc1ccccc1N)/C(C#N)=C(\N)Sc1ccccc1N` [U0126], in the data set on primary AML, the “primary AML survival” value is given as “decreased primary AML survival”.

For the compound `COc1cccc(-c2cc(=O)c3ccccc3o2)c1N` [PD98059], the “primary AML survival” value in the data set on primary AML is reported as “decreased primary AML survival”.

With `C[C@@H]1C[C@H]2[C@@H]3CCC4=CC(=O)C=C[C@]4(C)[C@@]3(F)[C@@H](O)C[C@]2(C)[C@@]1(O)C(=O)CO` [dexamethasone, reference compound], in the data set with primary AML cells, the “effect on TPA cytotoxicity” value is “enhance TPA cytotoxicity”.

Turning to `CC1=C[C@H]2[C@@]3(O)[C@H](C)[C@@H](O)[C@]4(O)[C@H]([C@@H]3C=C(CO)C[C@]2(O)C1=O)C4(C)C` [Phorbol], the solubility entry in data set [1] is “well soluble in most polar organic solvents and in water”.
